From publication PMC11249646, “Small-Molecule Disruptors of the Interaction between Calcium- and Integrin-Binding Protein 1 and Integrin αIIbβ3 as Novel Antiplatelet Agents” (ACS Pharmacology & Translational Science, 2024)

biological target: T1, CIB1 and αIIb interaction (CIB1-GST : F-αIIb peptide) (Homo sapiens, UniProt Q99828); assay: FP assay, 1536-well qHTS format (primary and confirmatory screen); format: binding; conditions: confirmatory screen, YES/NO call
T1 construct: made in house; host or cells: BL-21 plus RIL cells (E. coli)
T1 sequence (Q99828 1-191): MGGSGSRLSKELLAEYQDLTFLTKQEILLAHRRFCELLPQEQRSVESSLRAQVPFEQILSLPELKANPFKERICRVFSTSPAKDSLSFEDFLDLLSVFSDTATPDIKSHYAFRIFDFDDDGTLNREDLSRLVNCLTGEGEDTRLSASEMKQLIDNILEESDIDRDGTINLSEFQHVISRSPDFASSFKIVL

CONFIRMATORY SCREEN Confirm? | Compound
YES | Cc1ccc(-c2cc(-c3nn(-c4nc(C(=O)O)cs4)c(CC4CC4)c3Cc3ccc(S(N)(=O)=O)c(F)c3)ccc2F)s1.Cl [NCGC00388587-02]
YES | Cc1ccc(-c2cc(-c3nn(-c4nc(C(=O)O)cs4)c(CC4CC4)c3Cc3ccc(S(N)(=O)=O)c(F)c3)ccc2F)o1 [NCGC00389082-01]
YES | COc1ccc2c(c1)C=C1Cn3c-2c(C2CCCCC2)c2ccc(cc23)C(=O)NS(=O)(=O)N(C)CCOCCN(C)C1=O [NCGC00482982-02]

Compound | CONFIRMATORY SCREEN Confirm?
N#Cc1ccc(N2N=C3c4ccc(C(=O)O)cc4CC[C@@H]3[C@@H]2C2CCCC2)cc1Cl [NCGC00485023-01] | YES

same assay, conditions: confirmatory screen, qHTS curve class; negative sign = inhibitory curve

CONFIRMATORY SCREEN Curve Class | Compound
-2.4 | Cc1ccc(-c2cc(-c3nn(-c4nc(C(=O)O)cs4)c(CC4CC4)c3Cc3ccc(S(N)(=O)=O)c(F)c3)ccc2F)s1.Cl [NCGC00388587-02]
-3 | Cc1ccc(-c2cc(-c3nn(-c4nc(C(=O)O)cs4)c(CC4CC4)c3Cc3ccc(S(N)(=O)=O)c(F)c3)ccc2F)o1 [NCGC00389082-01]
-2.2 | COc1ccc2c(c1)C=C1Cn3c-2c(C2CCCCC2)c2ccc(cc23)C(=O)NS(=O)(=O)N(C)CCOCCN(C)C1=O [NCGC00482982-02]

Compound | CONFIRMATORY SCREEN Curve Class
N#Cc1ccc(N2N=C3c4ccc(C(=O)O)cc4CC[C@@H]3[C@@H]2C2CCCC2)cc1Cl [NCGC00485023-01] | -2.4

same assay, conditions: confirmatory screen; negative = inhibition

CONFIRMATORY SCREEN Efficacy (%) | Compound
-66 | Cc1ccc(-c2cc(-c3nn(-c4nc(C(=O)O)cs4)c(CC4CC4)c3Cc3ccc(S(N)(=O)=O)c(F)c3)ccc2F)s1.Cl [NCGC00388587-02]
-77 | Cc1ccc(-c2cc(-c3nn(-c4nc(C(=O)O)cs4)c(CC4CC4)c3Cc3ccc(S(N)(=O)=O)c(F)c3)ccc2F)o1 [NCGC00389082-01]
-52 | COc1ccc2c(c1)C=C1Cn3c-2c(C2CCCCC2)c2ccc(cc23)C(=O)NS(=O)(=O)N(C)CCOCCN(C)C1=O [NCGC00482982-02]

Compound | CONFIRMATORY SCREEN Efficacy (%)
N#Cc1ccc(N2N=C3c4ccc(C(=O)O)cc4CC[C@@H]3[C@@H]2C2CCCC2)cc1Cl [NCGC00485023-01] | -30

same assay, conditions: confirmatory screen; read-out: CONFIRMATORY SCREEN IC50

IC50 [µM] | Compound
20 | Cc1ccc(-c2cc(-c3nn(-c4nc(C(=O)O)cs4)c(CC4CC4)c3Cc3ccc(S(N)(=O)=O)c(F)c3)ccc2F)s1.Cl [NCGC00388587-02]
28.2 | Cc1ccc(-c2cc(-c3nn(-c4nc(C(=O)O)cs4)c(CC4CC4)c3Cc3ccc(S(N)(=O)=O)c(F)c3)ccc2F)o1 [NCGC00389082-01]
39.8 | COc1ccc2c(c1)C=C1Cn3c-2c(C2CCCCC2)c2ccc(cc23)C(=O)NS(=O)(=O)N(C)CCOCCN(C)C1=O [NCGC00482982-02]

same assay, conditions: qHTS FP screen hits, Table S2; negative = inhibition

Compound | Efficacy (%)
COc1ccc2c(c1)C=C1Cn3c-2c(C2CCCCC2)c2ccc(cc23)C(=O)NS(=O)(=O)N(C)CCOCCN(C)C1=O [NCGC00482982-02] | -35
N#Cc1ccc(N2N=C3c4ccc(C(=O)O)cc4CC[C@@H]3[C@@H]2C2CCCC2)cc1Cl [NCGC00485023-01] | -32

same assay, conditions: qHTS FP screen hits, Table S2; one class per curve where COUNT > 1; negative sign = inhibitory curve

Compound | Curve Class
COc1ccc2c(c1)C=C1Cn3c-2c(C2CCCCC2)c2ccc(cc23)C(=O)NS(=O)(=O)N(C)CCOCCN(C)C1=O [NCGC00482982-02] | -2.2
N#Cc1ccc(N2N=C3c4ccc(C(=O)O)cc4CC[C@@H]3[C@@H]2C2CCCC2)cc1Cl [NCGC00485023-01] | -1.2

same assay, conditions: qHTS FP screen hits, Table S2; read-out: IC50

IC50 [µM] | Compound
56.2 | COc1ccc2c(c1)C=C1Cn3c-2c(C2CCCCC2)c2ccc(cc23)C(=O)NS(=O)(=O)N(C)CCOCCN(C)C1=O [NCGC00482982-02]

same assay, conditions: qHTS primary screen hits, Table S2; negative = inhibition

Efficacy (%) | Compound
-23 | Cc1ccc(-c2cc(-c3nn(-c4nc(C(=O)O)cs4)c(CC4CC4)c3Cc3ccc(S(N)(=O)=O)c(F)c3)ccc2F)s1.Cl [NCGC00388587-02]
-40 | Cc1ccc(-c2cc(-c3nn(-c4nc(C(=O)O)cs4)c(CC4CC4)c3Cc3ccc(S(N)(=O)=O)c(F)c3)ccc2F)o1 [NCGC00389082-01]

same assay, conditions: qHTS primary screen hits, Table S2; negative sign = inhibitory curve; several classes where COUNT > 1

Curve Class | Compound
-1.4 | Cc1ccc(-c2cc(-c3nn(-c4nc(C(=O)O)cs4)c(CC4CC4)c3Cc3ccc(S(N)(=O)=O)c(F)c3)ccc2F)s1.Cl [NCGC00388587-02]
-2.4 | Cc1ccc(-c2cc(-c3nn(-c4nc(C(=O)O)cs4)c(CC4CC4)c3Cc3ccc(S(N)(=O)=O)c(F)c3)ccc2F)o1 [NCGC00389082-01]

same assay, conditions: qHTS primary screen hits, Table S2; read-out: IC50

IC50 [µM] | Compound
28.2 | Cc1ccc(-c2cc(-c3nn(-c4nc(C(=O)O)cs4)c(CC4CC4)c3Cc3ccc(S(N)(=O)=O)c(F)c3)ccc2F)s1.Cl [NCGC00388587-02]
22.4 | Cc1ccc(-c2cc(-c3nn(-c4nc(C(=O)O)cs4)c(CC4CC4)c3Cc3ccc(S(N)(=O)=O)c(F)c3)ccc2F)o1 [NCGC00389082-01]

biological target: T2, GST-CIB1 : F-scrambled peptide (Homo sapiens, UniProt Q99828); assay: FP scrambled-peptide counter screen, 384-well format; format: binding; conditions: F-scrambled peptide
T2 construct: made in house; host or cells: BL-21 plus RIL cells (E. coli)
T2 sequence (Q99828 1-191): T1 sequence (Q99828 1-191)

384-well COUNTERSCREEN Efficacy (%) | Compound
242 | Cc1ccc(-c2cc(-c3nn(-c4nc(C(=O)O)cs4)c(CC4CC4)c3Cc3ccc(S(N)(=O)=O)c(F)c3)ccc2F)s1.Cl [NCGC00388587-02]
158 | Cc1ccc(-c2cc(-c3nn(-c4nc(C(=O)O)cs4)c(CC4CC4)c3Cc3ccc(S(N)(=O)=O)c(F)c3)ccc2F)o1 [NCGC00389082-01]
25 | COc1ccc2c(c1)C=C1Cn3c-2c(C2CCCCC2)c2ccc(cc23)C(=O)NS(=O)(=O)N(C)CCOCCN(C)C1=O [NCGC00482982-02]

Compound | 384-well COUNTERSCREEN Efficacy (%)
N#Cc1ccc(N2N=C3c4ccc(C(=O)O)cc4CC[C@@H]3[C@@H]2C2CCCC2)cc1Cl [NCGC00485023-01] | 40

same assay, conditions: F-scrambled peptide; *: Curve in opposite direction

384-well COUNTERSCREEN Confirm? | Compound
YES | Cc1ccc(-c2cc(-c3nn(-c4nc(C(=O)O)cs4)c(CC4CC4)c3Cc3ccc(S(N)(=O)=O)c(F)c3)ccc2F)o1 [NCGC00389082-01]
YES* | COc1ccc2c(c1)C=C1Cn3c-2c(C2CCCCC2)c2ccc(cc23)C(=O)NS(=O)(=O)N(C)CCOCCN(C)C1=O [NCGC00482982-02]

same assay, conditions: F-scrambled peptide; read-out: 384-well COUNTERSCREEN IC50

IC50 [µM] | Compound
50.1 | Cc1ccc(-c2cc(-c3nn(-c4nc(C(=O)O)cs4)c(CC4CC4)c3Cc3ccc(S(N)(=O)=O)c(F)c3)ccc2F)s1.Cl [NCGC00388587-02]
39.8 | Cc1ccc(-c2cc(-c3nn(-c4nc(C(=O)O)cs4)c(CC4CC4)c3Cc3ccc(S(N)(=O)=O)c(F)c3)ccc2F)o1 [NCGC00389082-01]
> 120 | COc1ccc2c(c1)C=C1Cn3c-2c(C2CCCCC2)c2ccc(cc23)C(=O)NS(=O)(=O)N(C)CCOCCN(C)C1=O [NCGC00482982-02]

biological target: T2, GST-CIB1 : F-scrambled peptide; assay: FP scrambled-peptide counter screen, 1536-well format; format: binding; conditions: scrambled-peptide counterscreen

COUNTERSCREEN Efficacy (%) | Compound
32 | Cc1ccc(-c2cc(-c3nn(-c4nc(C(=O)O)cs4)c(CC4CC4)c3Cc3ccc(S(N)(=O)=O)c(F)c3)ccc2F)s1.Cl [NCGC00388587-02]
154 | Cc1ccc(-c2cc(-c3nn(-c4nc(C(=O)O)cs4)c(CC4CC4)c3Cc3ccc(S(N)(=O)=O)c(F)c3)ccc2F)o1 [NCGC00389082-01]
101 | COc1ccc2c(c1)C=C1Cn3c-2c(C2CCCCC2)c2ccc(cc23)C(=O)NS(=O)(=O)N(C)CCOCCN(C)C1=O [NCGC00482982-02]

Compound | COUNTERSCREEN Efficacy (%)
N#Cc1ccc(N2N=C3c4ccc(C(=O)O)cc4CC[C@@H]3[C@@H]2C2CCCC2)cc1Cl [NCGC00485023-01] | 165

same assay, conditions: scrambled-peptide counterscreen, YES/NO call

COUNTERSCREEN Confirm? | Compound
YES | Cc1ccc(-c2cc(-c3nn(-c4nc(C(=O)O)cs4)c(CC4CC4)c3Cc3ccc(S(N)(=O)=O)c(F)c3)ccc2F)s1.Cl [NCGC00388587-02]
YES | Cc1ccc(-c2cc(-c3nn(-c4nc(C(=O)O)cs4)c(CC4CC4)c3Cc3ccc(S(N)(=O)=O)c(F)c3)ccc2F)o1 [NCGC00389082-01]
YES | COc1ccc2c(c1)C=C1Cn3c-2c(C2CCCCC2)c2ccc(cc23)C(=O)NS(=O)(=O)N(C)CCOCCN(C)C1=O [NCGC00482982-02]

Compound | COUNTERSCREEN Confirm?
N#Cc1ccc(N2N=C3c4ccc(C(=O)O)cc4CC[C@@H]3[C@@H]2C2CCCC2)cc1Cl [NCGC00485023-01] | YES

same assay, conditions: scrambled-peptide counterscreen, qHTS curve class

COUNTERSCREEN Curve Class | Compound
4 | Cc1ccc(-c2cc(-c3nn(-c4nc(C(=O)O)cs4)c(CC4CC4)c3Cc3ccc(S(N)(=O)=O)c(F)c3)ccc2F)s1.Cl [NCGC00388587-02]

same assay, conditions: scrambled-peptide counterscreen; read-out: COUNTERSCREEN IC50

IC50 [µM] | Compound
79.4 | Cc1ccc(-c2cc(-c3nn(-c4nc(C(=O)O)cs4)c(CC4CC4)c3Cc3ccc(S(N)(=O)=O)c(F)c3)ccc2F)o1 [NCGC00389082-01]
70.8 | COc1ccc2c(c1)C=C1Cn3c-2c(C2CCCCC2)c2ccc(cc23)C(=O)NS(=O)(=O)N(C)CCOCCN(C)C1=O [NCGC00482982-02]

biological target: T3, CIB1 and αIIb interaction (GST-CIB1 : F-αIIb peptide) (Homo sapiens, UniProt Q99828); assay: FP assay, 384-well format (screen); format: binding; design: 384-well SCREEN Efficacy (%): concentration or dose not given beside the values; conditions: F-αIIb peptide
T3 construct: made in house; host or cells: BL-21 plus RIL cells (E. coli)
T3 sequence (Q99828 1-191): T1 sequence (Q99828 1-191)

384-well SCREEN Efficacy (%) | Compound
84 | Cc1ccc(-c2cc(-c3nn(-c4nc(C(=O)O)cs4)c(CC4CC4)c3Cc3ccc(S(N)(=O)=O)c(F)c3)ccc2F)s1.Cl [NCGC00388587-02]
60 | Cc1ccc(-c2cc(-c3nn(-c4nc(C(=O)O)cs4)c(CC4CC4)c3Cc3ccc(S(N)(=O)=O)c(F)c3)ccc2F)o1 [NCGC00389082-01]
35 | COc1ccc2c(c1)C=C1Cn3c-2c(C2CCCCC2)c2ccc(cc23)C(=O)NS(=O)(=O)N(C)CCOCCN(C)C1=O [NCGC00482982-02]

Compound | 384-well SCREEN Efficacy (%)
N#Cc1ccc(N2N=C3c4ccc(C(=O)O)cc4CC[C@@H]3[C@@H]2C2CCCC2)cc1Cl [NCGC00485023-01] | -15

same assay, conditions: F-αIIb peptide; YES/NO

384-well SCREEN Confirm? | Compound
YES | Cc1ccc(-c2cc(-c3nn(-c4nc(C(=O)O)cs4)c(CC4CC4)c3Cc3ccc(S(N)(=O)=O)c(F)c3)ccc2F)o1 [NCGC00389082-01]
YES | COc1ccc2c(c1)C=C1Cn3c-2c(C2CCCCC2)c2ccc(cc23)C(=O)NS(=O)(=O)N(C)CCOCCN(C)C1=O [NCGC00482982-02]

same assay, conditions: F-αIIb peptide; read-out: 384-well SCREEN IC50

IC50 [µM] | Compound
> 120 | Cc1ccc(-c2cc(-c3nn(-c4nc(C(=O)O)cs4)c(CC4CC4)c3Cc3ccc(S(N)(=O)=O)c(F)c3)ccc2F)s1.Cl [NCGC00388587-02]
4.5 | Cc1ccc(-c2cc(-c3nn(-c4nc(C(=O)O)cs4)c(CC4CC4)c3Cc3ccc(S(N)(=O)=O)c(F)c3)ccc2F)o1 [NCGC00389082-01]
30.1 | COc1ccc2c(c1)C=C1Cn3c-2c(C2CCCCC2)c2ccc(cc23)C(=O)NS(=O)(=O)N(C)CCOCCN(C)C1=O [NCGC00482982-02]
